In patent publication US9938245B2 (THE TRUSTEES OF COLUMBIA UNIVERSITY IN THE CITY OF NEW YORK, priority 2014, dated 2018):
Entries after “also recorded” stand apart in the source; their conditions may differ.

Tests used:
[1] = test system: HT1080; experiment: Concentration-dependent growth inhibition (alamar blue), HT1080; format: cell-based, human; details: Homo sapiens, HT-1080, 48 h, 2 days
Procedure: Assay plates were prepared by seeding either BJ-derived cell lines or HT-1080 cells at 1,500 cells per well concentration in 36 μL growth medium. Cells in the assay plates were treated with compounds by transferring 4 μL volume from the compound plate. The final concentration of compound was typically 30 μM to 0.9 nM in this 16-point, 2-fold dilution series. Assay plates were returned to the culture incubator and maintained for 2 days before adding alamar blue. […] Plates were incubated further for 16 hours to allow reduction of alamar blue, which results in the generation of red fluorescence. The fluorescence intensity was determined using a Victor 3 plate reader (Perkin Elmer) with a 535 nm excitation filter and a 590 nm emission filter.
Percent growth inhibition (% GI) was calculated from the following formula using the alamar blue fluorescence intensity values. % GI=100*(1−(X−N)/(P−N)) X, cells treated with lethal compound; N, no cells—growth media only; P, no lethal compound—cells only.
The concentration-dependent curves were generated using Prism software. Percent growth inhibition, measured using alamar blue is shown. Error bars indicate one standard deviation of triplicate data.
The results are shown in FIG. 17 and in Table 7 below.

[2] = molecular target: T1, system xc− (Homo sapiens, UniProt Q9UPY5); experiment: Glutamate release assay (system xc− activity); details: read-out: IC50 glutamate release; CCF-STTG1 human astrocytoma cells, 2 hour incubation
T1 sequence (Q9UPY5 1-501): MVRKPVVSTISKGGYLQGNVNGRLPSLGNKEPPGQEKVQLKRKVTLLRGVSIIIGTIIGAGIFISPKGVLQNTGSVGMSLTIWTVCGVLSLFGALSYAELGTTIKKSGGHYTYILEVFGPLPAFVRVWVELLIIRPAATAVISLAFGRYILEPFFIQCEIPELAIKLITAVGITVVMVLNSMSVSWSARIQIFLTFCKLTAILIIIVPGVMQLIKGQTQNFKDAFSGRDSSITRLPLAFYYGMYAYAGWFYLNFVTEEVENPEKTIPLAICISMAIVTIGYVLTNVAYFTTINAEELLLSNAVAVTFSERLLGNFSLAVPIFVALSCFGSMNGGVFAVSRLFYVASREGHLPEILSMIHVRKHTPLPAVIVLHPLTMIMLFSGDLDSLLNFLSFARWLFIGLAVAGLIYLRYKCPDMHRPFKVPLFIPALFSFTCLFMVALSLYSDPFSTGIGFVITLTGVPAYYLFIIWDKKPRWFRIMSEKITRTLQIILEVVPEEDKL
T1 sequence (P08195 1-529 partner): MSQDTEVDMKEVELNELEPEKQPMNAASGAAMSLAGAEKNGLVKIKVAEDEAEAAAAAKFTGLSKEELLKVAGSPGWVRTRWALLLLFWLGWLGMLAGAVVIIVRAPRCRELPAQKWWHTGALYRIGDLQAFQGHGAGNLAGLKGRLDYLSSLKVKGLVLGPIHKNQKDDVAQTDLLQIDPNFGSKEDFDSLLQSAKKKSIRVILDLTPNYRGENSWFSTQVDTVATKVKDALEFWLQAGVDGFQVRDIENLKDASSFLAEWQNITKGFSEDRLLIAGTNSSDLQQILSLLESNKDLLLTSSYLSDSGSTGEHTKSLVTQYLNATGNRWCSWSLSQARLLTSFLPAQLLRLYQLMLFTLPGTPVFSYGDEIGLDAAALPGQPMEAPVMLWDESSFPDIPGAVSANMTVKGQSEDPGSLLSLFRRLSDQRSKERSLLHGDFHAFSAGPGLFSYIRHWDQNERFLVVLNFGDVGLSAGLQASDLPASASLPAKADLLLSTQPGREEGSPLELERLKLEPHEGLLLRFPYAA

[3] = test system: BJeLR; experiment: Concentration-dependent growth inhibition (alamar blue), isogenic BJ cell lines; format: cell-based, human; details: for IC50: Homo sapiens, BJeLR, 48 h, 2 days, alamar blue
[4] = Compound half-life in liver microsomes; details: for metabolic stability (in words): mouse liver microsomes; for half-life at 0.5 μM: mouse, liver microsomes, pH 7.4
[5] = test system: HT-1080 cells, U-2 OS cells; experiment: Cell viability (alamar blue, 24 hours) with modulators of erastin lethality; format: cell-based, human; details: HT-1080 or U-2 OS cells
[6] = test system: GFP-ALOX5; experiment: GFP-ALOX5 translocation assay; format: cell-based, human
[7] = test system: BJeH, BJeHLT, BJeLR, and DRD; experiment: RSL testing in 4 BJ-derived cell lines; format: cell-based, human
[8] = test system: xenograft tumors generated from BJeLR cells; format: in vivo
From the text: . To test our hypothesis that IKE represented a candidate of choice for in vivo studies, we treated xenograft tumors generated from BJeLR cells in nude mice and with IKE compared to vehicle or doxorubicin treatments (as a positive growth suppression control). […] To confirm that growth suppression caused by IKE was due to ferroptotic cell death, we looked at levels of expression of PTGS2, a gene expression marker of ferroptosis. […]

[9] = Pharmacokinetic profile in mice; set-up: species or system mice (C57BL/6); details: mouse, in vivo; 5 mg/kg IKE, single IV bolus or single oral gavage, C57BL/6 mice

SMILES: CC(C)Oc1ccc(C(=O)C(F)(F)F)cc1-n1c(CN2CCN(C(=O)COc3ccc(Cl)cc3)CC2)nc2ccccc2c1=O [TFKE]
- IC50 [1]: 178 nM
- IC50 [2]: 20 nM

SMILES: CC(C)Oc1ccc(C(=O)CN2CCOCC2)cc1-n1c(CN2CCN(C(=O)COc3ccc(Cl)cc3)CC2)nc2ccccc2c1=O [MKE]
- Selectivity (IC50BJeH/IC50BJeLR) [3]: 5
- IC50 [3]: 427 nM
- IC50 [2]: 10 nM
- metabolic stability (in words) [4]: medium to poor metabolic stability
- half-life at 0.5 μM [4]: 23.4 min

SMILES: COc1ccc(CN2CCN(CC(=O)c3ccc(OC(C)C)c(-n4c(CN5CCN(C(=O)COc6ccc(Cl)cc6)CC5)nc5ccccc5c4=O)c3)CC2)cc1 [PMB-PKE]
- Selectivity (IC50BJeH/IC50BJeLR) [3]: 13
- IC50 [3]: 13 nM
- IC50 [2]: 4 nM
- metabolic stability (in words) [4]: medium to poor metabolic stability
- half-life at 0.5 μM [4]: 3.4 min

SMILES: CC(=O)N[C@@H](CS)C(=O)O [N-acetyl-cysteine]
- effect on erastin-induced cell death [5]: rescued cells from erastin lethality

SMILES: CN[C@@H]1C[C@H]2O[C@@](C)([C@@H]1OC)n1c3ccccc3c3c4c(c5c6ccccc6n2c5c31)C(=O)NC4 [staurosporine, Staurosporine]
- translocation of GFP-ALOX5 to the nuclear membrane [6]: did not

SMILES: C[C@H](CCC(=O)O)C[C@H](C)C[C@H](C)C(=O)/C=C(\O)[C@H](C)C[C@H](C)C/C=C/[C@@H](C)[C@@H](O)[C@@H](C)[C@@H](O)C[C@@H]1CC[C@@](C)([C@H]2CC[C@@](C)([C@@H](C)O)O2)O1 [ionomycin]
- translocation of GFP-ALOX5 to the nuclear membrane [6]: induced localization of GFP-ALOX5 to the nuclear membrane in all BJ-derived cell lines

SMILES: CCCCS(=N)(=O)CCC(N)C(=O)O (stereo not shown) [BSO, Buthioninesulfoximine]
- RSL phenotype (selective lethality in oncogenic-RAS cells) [7]: RSL phenotype was observed; also recorded: consistently showed an RSL phenotype

SMILES: C[C@H]1O[C@@H](O[C@H]2[C@@H](O)C[C@H](O[C@H]3[C@@H](O)C[C@H](O[C@H]4CC[C@@]5(C)[C@H](CC[C@@H]6[C@@H]5C[C@@H](O)[C@]5(C)[C@@H](C7=CC(=O)OC7)CC[C@]65O)C4)O[C@@H]3C)O[C@@H]2C)C[C@H](O)[C@@H]1O [digoxin, Digoxin]
- translocation of GFP-ALOX5 to the nuclear membrane [6]: induced GFP-ALOX5 translocation

SMILES: CC(C)Oc1ccc(C=O)cc1-n1c(CN2CCN(C(=O)COc3ccc(Cl)cc3)CC2)nc2ccccc2c1=O [AE, aldehyde erastin]
- IC50 [3]: 8 nM
- IC50 [1]: 39 nM
- IC50 [2]: 60 nM
- half-life at 0.5 μM [4]: < 5 min

SMILES: CC(C)Oc1ccc(C(=O)Cn2ccnc2)cc1-n1c(CN2CCN(C(=O)COc3ccc(Cl)cc3)CC2)nc2ccccc2c1=O [IKE, imidazole ketone erastin]
- tumor growth, IKE compared to doxorubicin treatment ([8]; 8 day study): no significant difference
- overt toxicity (body weight) ([8]; mouse, in vivo): No overt toxicity was observed
- expression of PTGS2 relative to doxorubicin or vehicle-treated mice ([8]; qPCR, xenograft): three-fold average increase
- tumor size compared to vehicle-treated ([8]; seven once-daily doses of IKE 50 mg/kg I.P., 8 day study): about one third of the size of vehicle-treated tumors
- Selectivity (IC50BJeH/IC50BJeLR) [3]: 42
- IC50 [3]: 3 nM
- IC50 [1]: 314 nM
- bioavailability [9]: 2.49%
- IC50 [2]: 30 nM
- metabolic stability (in words) [4]: exceptionally high metabolic stability

SMILES: CC(C)Oc1ccc(C(=O)CN2CCN(C)CC2)cc1-n1c(CN2CCN(C(=O)COc3ccc(Cl)cc3)CC2)nc2ccccc2c1=O [MPKE]
- Selectivity (IC50BJeH/IC50BJeLR) [3]: 1.9
- IC50 [3]: 474 nM
- IC50 [2]: 300 nM
